target: Beta-secretase 1 (Homo sapiens, UniProt P56817); experiment: Inhibition of BACE1 (unknown origin) using Rh-EVNNLDAEFK-Quencher substrate incubated for 3 hrs by FRET assay
Sequence (P56817 whole entry): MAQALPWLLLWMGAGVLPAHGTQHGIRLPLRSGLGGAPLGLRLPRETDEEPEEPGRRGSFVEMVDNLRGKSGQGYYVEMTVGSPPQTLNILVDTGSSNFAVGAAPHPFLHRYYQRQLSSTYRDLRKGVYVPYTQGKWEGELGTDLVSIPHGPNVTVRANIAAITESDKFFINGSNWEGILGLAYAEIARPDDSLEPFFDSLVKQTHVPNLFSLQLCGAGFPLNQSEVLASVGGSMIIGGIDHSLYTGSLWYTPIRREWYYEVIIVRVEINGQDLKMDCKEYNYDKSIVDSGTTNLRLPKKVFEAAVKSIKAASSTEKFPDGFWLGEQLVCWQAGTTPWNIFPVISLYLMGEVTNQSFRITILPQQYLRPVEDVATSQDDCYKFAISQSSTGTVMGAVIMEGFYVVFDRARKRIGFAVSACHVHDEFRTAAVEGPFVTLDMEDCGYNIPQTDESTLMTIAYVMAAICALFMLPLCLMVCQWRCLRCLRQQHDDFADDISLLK

Q: Which IC50 does the source give for C/C(=C\CC/C(C)=C/CCC1(C)C=Cc2cc(C(=O)O)ccc2O1)CC/C=C(\C)C(=O)O (racemic) here?
A: 11.4 µM

Q: C=C(CC/C=C(\C)CC/C=C(\C)C(=O)O)C(O)CC/C(C)=C/Cc1cc(C(=O)O)ccc1O (racemic) was tested. Which IC50 did it give?
A: 14.7 µM

Q: Which IC50 does the source give for C/C(=C\CC/C(C)=C/Cc1cc(C(=O)O)ccc1O)CC/C=C(\C)CC/C=C(\C)C(=O)O here?
A: 2 µM
